One test relates to type II CIA. As to the kind of experiment: Type II collagen-induced arthritis (CIA). It is filed as in vivo, mice. Conditions: therapeutic. On the procedure: To evaluate the therapeutic effect of GIT27 in arthritis, mice developing type II CIA were treated for 10 consecutive days. […] Control mice were treated under the same experimental regime with the vehicle of GIT27.
The vehicle-treated control mice rapidly develop full clinical signs of type II CIA with a progressive increment of the arthritic clinical scores and severe hind paws oedema. This clinical picture was reflected by severe inflammatory arthritis as indicated by the high the progressive increment of the arthritic histological scores determinated by histological evaluation.

The test system of the next test is DNB-induced colitis. Briefly: DNB-induced colitis. It is filed as in vivo, mice. On the procedure: Within 5 days after challenge with dinitrobenzene sulfonic acid (DNB), mice develop colitis. The disease severity is evaluated based on a macroscopic score. The vehicle-treated control mice and untreated mice developed colitis with a predictable and progressive increase in inflammation and body weight loss. […] The colons of the control mice and of the GIT27 treated mice were removed, sectioned, fixed, and stained with hematoxylin and eosin. […] The tissue myeloperoxidase activity is a well established marker to assess the inflammatory cell (mainly neutrophils) infiltration. […] We counted an average of 8,9±1.2 (means±SD) cells/high power field in the of DNB-induced animals, whereas there were only 3.37±0.8 cells/high-power field in DNB-induced animals pretreated with GIT27 (p<0.0001).

The subject of another test is MLD-STZ induced diabetes. Briefly: Diabetes induced by multiple low doses of streptozotocin. Type of test: in vivo, CBA/H mice. To be noted: prophylactic. From the text:
Both i.p and p.o. treatment with GIT27 suppressed clinical development of diabetes that is induced in CBA/H mice by multiple low doses of streptozotocin. CBA/H mice developed sustained hyperglycaemia over a 2-week period following MLD-STZ injections. As expected, CBA/H control mice treated with the vehicle of GIT27 either i.p. or p.o. develop diabetes with sustained hyperglycaemia developed over a 2-week period following MLD-STZ injections.

Test [1] has as its system Peritoneal macrophages (PM). As to the kind of experiment: In vitro cytokine synthesis by LPS-stimulated peritoneal macrophages. It is filed as cell-based, mice. As for the experimental part: (§1) Peritoneal macrophages (PM) and splenic mononuclear cells (SMNC) were isolated from normal mice, were cultured in nutrient medium and stimulated with LPS and/or ConA, respectively in the absence or presence of GIT27. […] GIT27 had no effect on MIF expression in either cell type, on proliferation of SMNC, and on IL-10 and Interferon (IFN) gamma production by SMNC.

Test [2] has as its system splenic mononuclear cells (SMNC). Briefly: Ex vivo proliferation and cytokine synthesis of SMNC isolated from GIT27 treated mice. It is filed as in vivo. To be noted: mice treated 7 days i.p. 0.5 mg/mouse or p.o. 2.5 mg/mouse. On the procedure:
(§2) These experiments were carried out to explore if intraperitoneal (i.p.) or per os (p.o.) treatment of mice with GIT27 could influence the proliferative response of SMNC and the production of IL-1β, IL-10, TNF-α, IFN-γ and MIF from isolated PM and SMNC. PM and SMNC isolated from mice treated in vivo with GIT27 for 7 consecutive days i.p. (0.5 mg/mouse), or p.o. (2.5 mg/mouse), or isolated from control animals that received GIT27 vehicle (Na2HPO4/H2O), or were without any treatment. 24 h after the last GIT27 treatment, PM and SMNC were collected for further in vitro stimulation and analysis.

A further test has as its system LPS-induced lethality. Briefly: LPS-induced lethality in vivo. To be noted: for protection from LPS-induced lethality: therapeutic. Also on record: species or system mice. On the procedure:
As expected, most of the control mice either untreated or that received the vehicle of GIT27 succumbed to LPS-challenge within 3 days. […] In contrast, the treatment with GIT27 given either po or ip protect the mice from the lethal effects of LPS in a dose-dependent fashion. When given p.o., GIT27 was effective at the dose of 2.5 mg/mouse and dosed out both at 1.5 and 3 mg/mouse.

For test [3], the system named is splenic mononuclear cells (SMNC). As to the kind of experiment: In vitro proliferation and cytokine synthesis by ConA-stimulated splenic mononuclear cells. Type of test: cell-based, mice. On the procedure: as §1
Test [4] relates to Peritoneal macrophages (PM). Briefly: Ex vivo cytokine synthesis of PM isolated from GIT27 treated mice. To be noted: mice treated 7 days i.p. 0.5 mg/mouse or p.o. 2.5 mg/mouse. It is filed as in vivo. As for the experimental part: as §2
For a further test, the system named is CAR-induced pleurisy. Briefly: Carrageenan (CAR) induced pleurisy. Type of test: in vivo, mice. To be noted: prophylactic treatment. From the text: GIT27 powerfully suppresses CAR-induced pleurisy in mice All the mice that were challenged with CAR and left untreated or treated with the vehicle of GIT27 developed an acute pleurisy, with production of turbid exudate, PMNs infiltration, and myeloperoxidase (MPO) activity accumulation in the lung.

In another test the test system is NF-kB. As to the kind of experiment: LPS-induced NF-kB DNA binding in monocyte-derived human macrophages. It is filed as cell-based.
Test [5] deals with oxazolone-induced hypersensitivity. Briefly: Oxazolone-induced dermatitis. It is filed as in vivo, mice.
Protocol: While the first application of oxazolone sensitizes the mice, the second elicits the hypersensitivity reaction. The dermatitis manifestations appear 18 hours after the second epicutaneous exposure to oxazolone, both ear thickness and weight markedly and progressively increase. The in vivo studies to assess the pharmacological activity of GIT27, were planned with two set of experimental. In the first set, the mice were treated during or before the sensitization phase. […] To evaluate the effects of GIT27 on the elicitation phase of oxazolone-induced dermatitis, the treatment with GIT27 was given one hour after the second epicutancous exposure to oxazolone, when start the progression of the immunoinflammatory responses.
For the next test, the system named is IL-10. Conditions: J. Exp Med.; cited from earlier work.
The mark [6] stands for this setting: 10 consecutive days from clinical score ≧1, vs vehicle.
[7] abbreviates: treated during or before the sensitization phase.

For `O=C(O)CC1CC(c2ccccc2)=NO1` (centres unmarked) [GIT27, 3-phenyl-4,5-dihydro-5-isoxazoleacetic acid], in the test with type II CIA (setting [6]), the clinical arthritic scores result was “lower” and the histological arthritic scores entry is “lower”. The “progression of the arthritic disease” value in the test on type II CIA (10 consecutive days, potency comparable to dexamethasone) is recorded as “significantly slower progression”. The “inflammatory cell infiltration (colon myeloperoxidase activity)” value with DNB-induced colitis (5 days after induction of colitis, p<0.0001) is on record as “significant reduction”. In the test on DNB-induced colitis (means±SD, DNB-induced animals pretreated, p<0.0001), the “infiltrating neutrophils in histology samples” value worked out at 3.37±0.8 cells/high-power field. For the same compound, in the test with DNB-induced colitis (treated before DNB-induced colitis, vs control mice), the “tissue damage (colon histology)” value is listed as “significantly reduced”. Further, the weight loss entry in the test on DNB-induced colitis (vs control groups) is “significant reduction”. Also, the “increase in colon weight” value in the test with DNB-induced colitis (vs controls) is “significantly lower”. The “progression of inflammatory colitis (macroscopic score)” value with DNB-induced colitis (vs controls, p<0.001) is reported as “significantly attenuated”. In addition, the “diabetogenic effect of MLD-STZ (hyperglycaemia)” value in the test on MLD-STZ induced diabetes (i.p.) is “significantly reduced”. Also, the development of hyperglycaemia entry in the test on MLD-STZ induced diabetes (p.o.) was “significantly reducing”. Further, in test [1], the “MIF expression in PM” value was “no effect”. Also, in [1] (LPS stimulated), the “production of IL-1β by PM” value is recorded as “inhibited”, the “production of IL-10 by PM” value is given as “inhibited” and the “production of TNF α by PM” value is reported as “markedly inhibited”. Besides, in test [2], the “IFN-γ production by SMNC upon stimulation” value is given as “normal capacity to produce”, the “IL-1β production by SMNC upon stimulation” value is listed as “normal capacity to produce”, the “IL-10 production by SMNC upon stimulation” value is on record as “normal capacity to produce” and the “MIF expression by SMNC” value is listed as “normal expression pattern”. Moreover, in test [2], the “TNF-α production by SMNC upon stimulation” value is reported as “normal capacity to produce” and the “proliferation of SMNC” value is on record as “normal capacity to proliferate”. In the test on LPS-induced lethality (i.p., between 0.25 and 0.5 mg/mouse), the “protection from LPS-induced lethality” value is “dose-dependent protection”. Besides, the LPS-induced lethality result with LPS-induced lethality (p.o. and i.p., prophylactic regime (-24 and -1 hour prior to LPS)) was “significantly reducing”. For the same compound, in the test on LPS-induced lethality (p.o., 2.5 mg/mouse), the “protection from LPS-induced lethality” value is reported as “effective”. Also, the “protection from LPS-induced lethality” value with LPS-induced lethality (p.o., 1.5 and 3 mg/mouse) was “dosed out”. In addition, the LPS-induced lethality entry in the test on LPS-induced lethality (therapeutic administration, overall) was “powerfully counteracts”. The “MIF expression in SMNC” value in test [3] is “no effect”. In addition, in [3] (ConA stimulated), the “IL-10 production by SMNC” value is on record as “no effect”, the “Interferon (IFN) gamma production by SMNC” value is “no effect”, the “production of TNF α by SMNC” value is recorded as “markedly inhibited” and the “proliferation of SMNC” value was “no effect”. Besides, in test [4], the “MIF expression by PM upon mitogenic stimulation” value is reported as “normal pattern”, the “synthesis of IL-1β by PM” value was “impaired synthesis”, the “synthesis of IL-10 by PM” value is on record as “impaired synthesis” and the “synthesis of TNF α by PM” value was “impaired synthesis”. Besides, in the test with CAR-induced pleurisy, the PMNs infiltration result is on record as “reduced”, the “myeloperoxidase (MPO) activity accumulation in the lung” value is “reduced” and the production of exudate result is “reduced”. Also, the “overall effect on CAR-induced pleurisy” value in the test with CAR-induced pleurisy (comparable to antibody against mouse TNF-alpha) was “powerful protective effect”. The “DNA binding of NF-kB induced by LPS” value in the test on NF-kB is on record as “powerfully inhibits in a dose-dependent fashion”. For the same compound, in test [5] (elicitation phase: treated one hour after second exposure to oxazolone), the ear thickness entry is listed as “significant decrease”. For the same compound, in [5] (setting [7]), the “increment of ear thickness” value was “significantly suppressed” and the “increment of ear weight” value is “significantly suppressed”.

Cyclosporin A: the “IL-10 synthesis in vitro” value with IL-10 is “down-regulates”.

The values above are taken from patent US8304442B2, “Compounds having immunomodulator activity” (Ganial Immunotherapeutics, Inc., priority 2005, dated 2012).
